Assay results reported in US8921552B2, “Benzothiazole hybrids useful as anticancer agents and process for the preparation thereof” (Council of Scientific & Industrial Research, priority 2011, dated 2014).

Key:
PC-3 = experiment: In vitro cytotoxicity, SRB assay, prostate cancer cell line PC-3; assay type: cell-based, human; conditions: PC-3 (prostate); for inhibition at 10 µM: Homo sapiens, 48 h exposure, read-out: % of growth inhibition
Description: (§1) The benzothiazole hybrids has been tested against seven human tumor cell lines derived from six cancer types (lung cancer, colon cancer, CNS cancer, ovarian cancer, prostate cancer and breast cancer). For these compounds results are expressed as percent of cell growth inhibition relative to that of untreated control cells.

MCF7 = experiment: In vitro cytotoxicity, SRB assay, breast cancer cell line MCF7; assay type: cell-based, human; conditions: for inhibition at 10 µM: Homo sapiens, 48 h exposure, read-out: % of growth inhibition
Description: as §1

IGR-OV-1 = experiment: In vitro cytotoxicity, SRB assay, ovarian cancer cell line IGR-OV-1; assay type: cell-based, human; conditions: IGR-OV-1 (ovarian); for inhibition at 10 µM: Homo sapiens, IGROV-1, 48 h exposure, read-out: % of growth inhibition
Description: as §1

A-549 = experiment: In vitro cytotoxicity, SRB assay, lung cancer cell line A-549; assay type: cell-based, human; conditions: A-549 (lung); for inhibition at 10 µM: Homo sapiens, A549, 48 h exposure, read-out: % of growth inhibition
Description: as §1

SW-620 [1] = experiment: In vitro cytotoxicity, SRB assay, colon cancer cell line SW-620; assay type: cell-based; conditions: Homo sapiens, SW-620 (colon), 48 h exposure, read-out: % of growth inhibition
Description: as §1, with “cells. A protocol of 48 h continuous drug exposure has been used, and a sulforhodamine B (SRB) protein assay was used to estimate cell viability or growth.” for “cells.”
(§2) The compounds 9b, 9h, 9m, 9r, 15c, 15h, 15m, 15r, 10b, 10h, 10m, 10r, 16c, 16h and 16m were evaluated for in vitro anticancer activity against seven human tumor cells derived from six cancer types (lung cancer, colon cancer, CNS cancer, ovarian cancer, prostate cancer and breast cancer) at concentration of 10 μM and the results are shown in Table 1.

SF-295 = experiment: In vitro cytotoxicity, SRB assay, CNS cancer cell line SF-295; assay type: cell-based, human; conditions: SF-295 (CNS); for inhibition at 10 µM: Homo sapiens, 48 h exposure, read-out: % of growth inhibition
Description: as §1

Colo-205 = experiment: In vitro cytotoxicity, SRB assay, colon cancer cell line Colo-205; assay type: cell-based, human; conditions: Colo-205 (colon); for inhibition at 10 µM: Homo sapiens, 48 h exposure, read-out: % of growth inhibition
Description: as §1

SW-620 [2] = experiment: In vitro cytotoxicity, SRB assay, colon cancer cell line SW-620; assay type: cell-based, human; conditions: SW-620 (colon), reference drug at 1 μM
human tumor cell lines = experiment: In vitro anticancer activity, panel of seven human tumor cell lines (SRB assay); assay type: cell-based; conditions: Homo sapiens; range over the cell lines, 10 μM, exposure period of at least 48 hrs; read-out: percentage growth inhibition for invitro anticancer activity
Description: as §1, with “cells. A protocol of 48 h continuous drug exposure has been used, and a sulforhodamine B (SRB) protein assay was used to estimate cell viability or growth.” for “cells.”
as §2

SMILES: O=c1[nH]cc(F)c(=O)[nH]1 [5-Fluoro uracil, reference compound]
- inhibition at 10 µM (PC-3): 29%
- inhibition at 10 µM (MCF7): 66%
- inhibition at 10 µM (IGR-OV-1): 47%
- inhibition at 10 µM (A-549): 64%
- inhibition at 10 µM (SW-620 [1]): 41%
- inhibition at 10 µM (SF-295): 9%
- inhibition at 10 µM (Colo-205): 55%

SMILES: COc1cccc2c1C(=O)c1c(O)c3c(c(O)c1C2=O)C[C@@](O)(C(=O)CO)C[C@@H]3O[C@H]1C[C@H](N)[C@H](O)[C@H](C)O1 [Adriyamycin, reference compound]
- % of growth inhibition (PC-3; reference drug at 1 μM): 55%
- % of growth inhibition (MCF7; reference drug at 1 μM): 69%
- % of growth inhibition (IGR-OV-1; reference drug at 1 μM): 78%
- % of growth inhibition (A-549; reference drug at 1 μM): 95%
- % of growth inhibition (SF-295; reference drug at 1 μM): 55%
- % of growth inhibition (Colo-205; reference drug at 1 μM): 77%
- % of growth inhibition (SW-620 [2]): 21%

SMILES: COc1ccc(/C=C\c2cc(OC)c(OC)c(OC)c2)cc1OCCCCOc1ccc(-c2nc3ccccc3s2)cc1 [Compound 9h, 2-[4-(4-{2-methoxy-5-[(Z)-2-(3,4,5-trimethoxyphenyl)-1-ethenyl]phenoxy}butoxy)phenyl]-1,3-benzothiazole]
- inhibition at 10 µM (PC-3): 65%
- inhibition at 10 µM (human tumor cell lines): 1 to 100%
- inhibition at 10 µM (MCF7): 64%
- inhibition at 10 µM (IGR-OV-1): 54%
- inhibition at 10 µM (A-549): 63%
- inhibition at 10 µM (SF-295): 34%
- inhibition at 10 µM (Colo-205): 15%

SMILES: COc1ccc(/C=C\c2cc(OC)c(OC)c(OC)c2)cc1OCCCCOc1cc(-c2nc3ccccc3s2)ccc1OC [Compound 9m, 2-[4-methoxy-3-(4-{2-methoxy-5-[(Z)-2-(3,4,5-trimethoxyphenyl)-1-ethenyl]phenoxy}butoxy)phenyl]-1,3-benzothiazole]
- inhibition at 10 µM (PC-3): 68%
- inhibition at 10 µM (human tumor cell lines): 1 to 100%
- inhibition at 10 µM (MCF7): 64%
- inhibition at 10 µM (IGR-OV-1): 58%
- inhibition at 10 µM (A-549): 73%
- inhibition at 10 µM (SF-295): 44%
- inhibition at 10 µM (Colo-205): 70%
